{"source": "patent US20250099475A1", "about": "“METHODS OF TREATING HYPERTENSION BY PERIODIC SUPPRESSION OF ALDOSTERONE SYNTHASE” (Mineralys Therapeutics, Inc., priority 2022, published 2025)", "origin": "cited, not measured here", "conditions": "in vivo; cited from earlier work"}
{"smiles": "CC(=O)S[C@@H]1CC2=CC(=O)CC[C@]2(C)[C@H]2CC[C@@]3(C)[C@@H](CC[C@@]34CCC(=O)O4)[C@H]12", "note": "[Spironolactone]", "values": [{"measurement": "risk of hyperkalemia", "result": "≤ 10", "unit": "%"}]}
